# Test results reported in PubChem BioAssay (NCI).
#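 1) Cells in 96-well plates. 2) Compound, 48 h, 5 concentrations. 3) Linear interpolation between surrounding doses. 4) Unreached endpoint = highest concentration. The concentration for full growth arrest is given as TGI.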
# Tests used:
# Assay in all cases: inhibition of tumour cell growth, NCI panel, 48 h
# A498 renal = system: A498 renal
# CCRF-CEM leukemia = system: CCRF-CEM leukemia
# COLO 205 colon = system: COLO 205 colon
# HOP-62 NSCLC = system: HOP-62 NSCLC
# K-562 leukemia = system: K-562 leukemia
# M14 melanoma = system: M14 melanoma
# NCI-H226 lung = system: NCI-H226 lung
# NCI-H23 lung = system: NCI-H23 lung
# NCI-H460 lung = system: NCI-H460 lung
# NCI/ADR-RES ovarian = system: NCI/ADR-RES ovarian
# OVCAR-4 ovarian = system: OVCAR-4 ovarian
# SF-268 CNS = system: SF-268 CNS
# SF-539 CNS = system: SF-539 CNS
# SK-MEL-2 melanoma = system: SK-MEL-2 melanoma
# SK-MEL-28 melanoma = system: SK-MEL-28 melanoma
# SNB-19 CNS = system: SNB-19 CNS
# SR leukemia = system: SR leukemia
# T-47D breast = system: T-47D breast
# TK-10 renal = system: TK-10 renal
# UO-31 renal = system: UO-31 renal
Compound,TGI (A498 renal),TGI (CCRF-CEM leukemia),TGI (COLO 205 colon),TGI (HOP-62 NSCLC),TGI (K-562 leukemia),TGI (M14 melanoma),TGI (NCI-H226 lung),TGI (NCI-H23 lung),TGI (NCI-H460 lung),TGI (NCI/ADR-RES ovarian),TGI (OVCAR-4 ovarian),TGI (SF-268 CNS),TGI (SF-539 CNS),TGI (SK-MEL-2 melanoma),TGI (SK-MEL-28 melanoma),TGI (SNB-19 CNS),TGI (SR leukemia),TGI (T-47D breast),TGI (TK-10 renal),TGI (UO-31 renal)
N#CSCC(Cl)=CCl (mixture of isomers),> 100 µM,> 100 µM,> 100 µM,> 100 µM,> 100 µM,> 100 µM,> 100 µM,> 100 µM,> 100 µM,> 100 µM,> 100 µM,> 100 µM,> 100 µM,> 100 µM,> 100 µM,> 100 µM,> 100 µM,> 100 µM,> 100 µM,> 100 µM
CC(=O)OCC1OC(N2C(C)=C(C(C)=O)C(c3ccc(Cl)cc3)C(C#N)=C2S)C(OC(C)=O)C(OC(C)=O)C1OC(C)=O (centres undefined),> 100 µM,> 100 µM,35.6 µM,> 100 µM,> 100 µM,> 100 µM,> 100 µM,,> 100 µM,> 100 µM,> 100 µM,> 100 µM,> 100 µM,> 100 µM,> 100 µM,> 100 µM,> 100 µM,> 100 µM,> 100 µM,88.8 µM
CSc1c(C(=O)Nc2ccccc2)c(N)n(N)c(=O)c1C#N,> 100 µM,> 100 µM,> 100 µM,,> 100 µM,> 100 µM,> 100 µM,> 100 µM,> 100 µM,> 100 µM,> 100 µM,> 100 µM,> 100 µM,> 100 µM,> 100 µM,> 100 µM,> 100 µM,> 100 µM,> 100 µM,> 100 µM
Nc1cc([N+](=O)[O-])ccc1C(=O)N1CCC[C@H]1CO,> 100 µM,> 100 µM,> 100 µM,,> 100 µM,,> 100 µM,> 100 µM,> 100 µM,> 100 µM,> 100 µM,> 100 µM,> 100 µM,> 100 µM,> 100 µM,> 100 µM,> 100 µM,> 100 µM,> 100 µM,> 100 µM
COC(=O)C1Cc2cc3c(cc2C1=O)CCC3 (centres undefined),> 100 µM,> 100 µM,> 100 µM,> 100 µM,> 100 µM,> 100 µM,> 100 µM,> 100 µM,> 100 µM,> 100 µM,> 100 µM,> 100 µM,> 100 µM,> 100 µM,> 100 µM,> 100 µM,> 100 µM,> 100 µM,> 100 µM,> 100 µM
CCCCCCNCCc1cnc[nH]1,> 100 µM,> 100 µM,> 100 µM,> 100 µM,> 100 µM,> 100 µM,> 100 µM,> 100 µM,> 100 µM,> 100 µM,> 100 µM,> 100 µM,> 100 µM,> 100 µM,> 100 µM,> 100 µM,> 100 µM,> 100 µM,,> 100 µM
O=C(CSc1nnc(-c2ccccn2)s1)N/N=C/c1ccccc1,> 100 µM,> 100 µM,> 100 µM,> 100 µM,> 100 µM,> 100 µM,> 100 µM,> 100 µM,> 100 µM,> 100 µM,> 100 µM,> 100 µM,> 100 µM,> 100 µM,> 100 µM,> 100 µM,> 100 µM,> 100 µM,> 100 µM,> 100 µM
COC(=O)C1=C(OC(=O)/C(=C/c2ccccc2)c2ccc(Cl)cc2Cl)C(C(=O)OC)[C@@]2(O)[C@@H](C(=O)OC)[C@H](C)C[C@@H]1[C@@H]2C(=O)OC (some centres undefined),> 100 µM,> 100 µM,> 100 µM,> 100 µM,> 100 µM,> 100 µM,> 100 µM,> 100 µM,> 100 µM,> 100 µM,> 100 µM,> 100 µM,> 100 µM,> 100 µM,> 100 µM,> 100 µM,> 100 µM,> 100 µM,> 100 µM,> 100 µM
Cc1cc(C)nc(NS(=O)(=O)c2ccc(Nc3c4ccccc4nc4ccc(C(=O)Nc5ccc(S(N)(=O)=O)cc5)cc34)cc2)n1,> 100 µM,> 100 µM,> 100 µM,> 100 µM,> 100 µM,> 100 µM,> 100 µM,> 100 µM,> 100 µM,> 100 µM,> 100 µM,> 100 µM,> 100 µM,> 100 µM,> 100 µM,> 100 µM,> 100 µM,> 100 µM,> 100 µM,> 100 µM
O=C1OC(CCCN2CCCCC2)(c2ccccc2)CC12CCCC2 (centres undefined),98.4 µM,> 100 µM,> 100 µM,> 100 µM,> 96.3 µM,34.3 µM,> 100 µM,> 100 µM,> 100 µM,> 100 µM,> 100 µM,> 100 µM,> 92.1 µM,> 100 µM,57 µM,> 100 µM,> 100 µM,> 100 µM,> 100 µM,> 100 µM
O=C(NN1C(=O)C(Cl)C1c1ccc(Cl)cc1)c1c(Cl)c(Cl)c(Cl)c(Cl)c1-c1nc2ccccc2[nH]1 (centres undefined),63.6 µM,> 100 µM,36.2 µM,> 100 µM,> 100 µM,74.9 µM,65.7 µM,69 µM,46.4 µM,> 100 µM,,> 100 µM,> 100 µM,47.1 µM,78.7 µM,> 100 µM,> 100 µM,25 µM,,> 100 µM
Cc1cccc(Cl)c1NCC(O)CN1CCN(C)CC1 (centres undefined),> 100 µM,> 100 µM,,> 100 µM,> 100 µM,> 100 µM,> 100 µM,> 100 µM,> 100 µM,> 100 µM,> 100 µM,> 100 µM,,> 100 µM,> 100 µM,> 100 µM,> 100 µM,> 100 µM,> 100 µM,> 100 µM
CCOC(=O)c1sc(=S)n(-c2ccc(Cl)cc2)c1-n1cc(-c2ccccc2)c(C#N)c1N,53.9 µM,> 100 µM,> 100 µM,14.7 µM,> 100 µM,> 100 µM,43.5 µM,70.6 µM,> 100 µM,47.1 µM,22.7 µM,8.6 µM,50.6 µM,64 µM,> 100 µM,41.6 µM,46.7 µM,27.8 µM,24.4 µM,
O=C(O)CO[C@@]12C#C/C=C\C#C[C@@H]3N(C(=O)Oc4ccccc4)c4ccccc4[C@]14O[C@@]34CCC2,> 100 µM,> 100 µM,46.8 µM,> 100 µM,92.9 µM,> 100 µM,> 100 µM,> 100 µM,> 100 µM,> 100 µM,> 100 µM,85.2 µM,> 100 µM,32.2 µM,> 100 µM,> 100 µM,> 100 µM,33.1 µM,> 100 µM,90 µM
ONC1=Nc2cc(Cl)ccc2C(=S)N2CSCC12 (centres undefined),> 100 µM,> 100 µM,> 100 µM,> 100 µM,> 100 µM,> 100 µM,> 100 µM,,> 100 µM,> 100 µM,> 100 µM,> 100 µM,,> 100 µM,> 100 µM,> 100 µM,> 100 µM,> 100 µM,> 100 µM,> 100 µM
COC(=O)[C@@H]1C=C[C@H](OC2OC(COC(C)=O)C(OC(C)=O)C(OC(C)=O)C2OC(C)=O)n2c(=O)n(-c3ccccc3)c(=O)n21 (some centres undefined),20 µM,4.42 µM,3.38 µM,28.1 µM,4.02 µM,5.77 µM,40.4 µM,14 µM,35.8 µM,31.4 µM,3.22 µM,8.17 µM,8.21 µM,5.05 µM,5.59 µM,25.8 µM,> 24.9 µM,8.75 µM,3.74 µM,5.25 µM
O=C1C2=Cc3ccccc3OC2(O)Oc2cc3ccccc3cc21 (centres undefined),> 100 µM,> 100 µM,> 100 µM,> 100 µM,> 100 µM,> 100 µM,> 100 µM,> 100 µM,> 100 µM,> 100 µM,> 100 µM,> 100 µM,79.2 µM,> 100 µM,> 100 µM,,> 100 µM,> 100 µM,> 100 µM,
COc1ccc(CC2COc3cc(OC)cc(OC)c3C2=O)cc1 (centres undefined),> 100 µM,,31.1 µM,97.1 µM,> 100 µM,78.8 µM,,> 100 µM,> 100 µM,39.9 µM,51.5 µM,> 100 µM,37.3 µM,> 100 µM,> 100 µM,> 100 µM,43.2 µM,56 µM,82.3 µM,> 100 µM
CCOC(=O)c1ccc(N=C/C=C(\Nc2ccc(C(=O)OCC)cc2)C23CC4CC(CC(C4)C2)C3)cc1,> 100 µM,,> 100 µM,> 100 µM,> 100 µM,> 100 µM,> 100 µM,> 100 µM,> 100 µM,> 100 µM,> 100 µM,> 100 µM,> 100 µM,> 100 µM,> 100 µM,> 100 µM,> 100 µM,> 100 µM,> 100 µM,> 100 µM
C=CCn1c(N)c(C#N)c(C#N)c1CCC,> 100 µM,> 100 µM,> 100 µM,> 100 µM,> 100 µM,> 100 µM,> 100 µM,> 100 µM,,> 100 µM,> 100 µM,> 100 µM,> 100 µM,> 100 µM,,> 100 µM,> 100 µM,> 100 µM,> 100 µM,> 100 µM
CC(C)CCNC(=O)c1ccc(CNC(=O)/C=C/c2cccc(Oc3ccccc3)c2)cc1,> 100 µM,,> 100 µM,53.3 µM,> 100 µM,> 100 µM,> 100 µM,> 100 µM,> 100 µM,> 100 µM,> 100 µM,> 100 µM,> 100 µM,72.5 µM,> 100 µM,> 100 µM,> 100 µM,> 100 µM,96.9 µM,> 100 µM
O=[N+]([O-])c1ccc(CSc2nncc3[nH]cnc23)cc1,> 100 µM,> 100 µM,> 100 µM,> 100 µM,> 100 µM,> 100 µM,> 100 µM,> 100 µM,,> 100 µM,> 100 µM,,> 100 µM,> 100 µM,> 100 µM,,> 100 µM,> 100 µM,> 100 µM,> 100 µM
Cc1ccc(C2(O)CSC(=NC34CC5CC(CC(C5)C3)C4)N2C(P(=O)(O)O)P(=O)(O)O)cc1 (centres undefined),> 100 µM,,> 100 µM,> 100 µM,> 100 µM,> 100 µM,> 100 µM,> 100 µM,> 100 µM,68.3 µM,> 100 µM,> 100 µM,> 100 µM,> 100 µM,> 100 µM,> 100 µM,> 100 µM,> 100 µM,> 100 µM,> 100 µM
CC1(C)N/C(=C\[N+](=O)[O-])C(C)(C)N1O,> 10 µM,> 10 µM,> 10 µM,> 10 µM,,> 10 µM,> 10 µM,> 10 µM,> 10 µM,> 10 µM,> 10 µM,> 10 µM,> 10 µM,> 10 µM,> 10 µM,> 10 µM,> 10 µM,> 10 µM,> 10 µM,
